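Exposure lasted 48 hours, with cells grown in 96-well plates and compounds tested at five concentrations. GI50 = concentration required for 50% inhibition of growth. TGI: concentration producing complete growth inhibition.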
Columns and labels:
Test in all cases: NCI tumour cell line growth inhibition, 48 h
OVCAR-5 ovarian = system: OVCAR-5 ovarian
CAKI-1 renal = system: CAKI-1 renal
DU-145 prostate = system: DU-145 prostate
HOP-92 NSCLC = system: HOP-92 NSCLC
LOX IMVI melanoma = system: LOX IMVI melanoma
NCI-H522 lung = system: NCI-H522 lung
MALME-3M melanoma = system: MALME-3M melanoma
A549 NSCLC = system: A549 NSCLC
UACC-257 melanoma = system: UACC-257 melanoma
MCF7 breast = system: MCF7 breast
KM12 colon = system: KM12 colon
RXF 393 renal = system: RXF 393 renal
PC-3 prostate = system: PC-3 prostate
SW-620 colon = system: SW-620 colon
M14 melanoma = system: M14 melanoma
MOLT-4 leukemia = system: MOLT-4 leukemia
OVCAR-8 ovarian = system: OVCAR-8 ovarian
A498 renal = system: A498 renal
UACC-62 melanoma = system: UACC-62 melanoma
786-0 renal = system: 786-0 renal
ACHN renal = system: ACHN renal
EKVX NSCLC = system: EKVX NSCLC
HOP-62 NSCLC = system: HOP-62 NSCLC
HCT-15 colon = system: HCT-15 colon
SK-MEL-28 melanoma = system: SK-MEL-28 melanoma
NCI/ADR-RES ovarian = system: NCI/ADR-RES ovarian
SR leukemia = system: SR leukemia
COLO 205 colon = system: COLO 205 colon
TK-10 renal = system: TK-10 renal
HS 578T breast = system: HS 578T breast
BT-549 breast = system: BT-549 breast
HCC-2998 colon = system: HCC-2998 colon
SK-OV-3 ovarian = system: SK-OV-3 ovarian
SN12C renal = system: SN12C renal
MDA-MB-231 breast = system: MDA-MB-231 breast
HT29 colon = system: HT29 colon
RPMI-8226 leukemia = system: RPMI-8226 leukemia
HL-60(TB) leukemia = system: HL-60(TB) leukemia
SK-MEL-5 melanoma = system: SK-MEL-5 melanoma
K-562 leukemia = system: K-562 leukemia
U251 CNS = system: U251 CNS
NCI-H226 lung = system: NCI-H226 lung
SK-MEL-2 melanoma = system: SK-MEL-2 melanoma
HCT-116 colon = system: HCT-116 colon
CCRF-CEM leukemia = system: CCRF-CEM leukemia
NCI-H23 lung = system: NCI-H23 lung
SF-539 CNS = system: SF-539 CNS
IGROV1 ovarian = system: IGROV1 ovarian
SF-295 CNS = system: SF-295 CNS
OVCAR-4 ovarian = system: OVCAR-4 ovarian
UO-31 renal = system: UO-31 renal
SNB-75 CNS = system: SNB-75 CNS
MDA-MB-435 = system: MDA-MB-435
NCI-H460 lung = system: NCI-H460 lung
SF-268 CNS = system: SF-268 CNS
T-47D breast = system: T-47D breast
SNB-19 CNS = system: SNB-19 CNS

With `NS(=O)(=O)c1ccc(Nc2nc(N/N=C/c3ccccn3)nc(Nc3ccccc3)n2)cc1` the GI50 (OVCAR-5 ovarian) was 1720 nM, the TGI (OVCAR-5 ovarian) was 6610 nM and the GI50 (CAKI-1 renal) was 701 nM. The TGI (CAKI-1 renal) was 4890 nM, the GI50 (DU-145 prostate) was 855 nM and the TGI (DU-145 prostate) was 4900 nM. The GI50 (HOP-92 NSCLC) was 853 nM, the TGI (HOP-92 NSCLC) was 4820 nM and the GI50 (LOX IMVI melanoma) was 657 nM. It also gave a TGI (LOX IMVI melanoma) of 3480 nM, a GI50 (NCI-H522 lung) of 431 nM and a TGI (NCI-H522 lung) of 3420 nM. The GI50 (MALME-3M melanoma) was 1000 nM, the TGI (MALME-3M melanoma) was 2510 nM and the GI50 (A549 NSCLC) was 2290 nM. It also gave a TGI (A549 NSCLC) of 5360 nM, a GI50 (UACC-257 melanoma) of 2140 nM and a TGI (UACC-257 melanoma) of 5390 nM. It also gave a GI50 (MCF7 breast) of 1300 nM, a TGI (MCF7 breast) of 3240 nM and a GI50 (KM12 colon) of 2190 nM. The TGI (KM12 colon) was 5140 nM, the GI50 (RXF 393 renal) was 1240 nM and the TGI (RXF 393 renal) was 2910 nM. It also gave a GI50 (PC-3 prostate) of 665 nM, a TGI (PC-3 prostate) of over 100000 nM and a GI50 (SW-620 colon) of 786 nM. It also gave a TGI (SW-620 colon) of over 100000 nM, a GI50 (M14 melanoma) of 1090 nM and a TGI (M14 melanoma) of 2480 nM. The GI50 (MOLT-4 leukemia) was 495 nM, the TGI (MOLT-4 leukemia) was over 39700 nM and the GI50 (OVCAR-8 ovarian) was 498 nM. It also gave a TGI (OVCAR-8 ovarian) of over 100000 nM, a GI50 (A498 renal) of 1570 nM and a TGI (A498 renal) of 3180 nM. For the same molecule, the GI50 (UACC-62 melanoma) was 788 nM, the TGI (UACC-62 melanoma) was 2310 nM and the GI50 (786-0 renal) was 1060 nM. For the same molecule, the TGI (786-0 renal) was over 100000 nM, the GI50 (ACHN renal) was 1960 nM and the TGI (ACHN renal) was 5470 nM. The GI50 (EKVX NSCLC) was 1020 nM, the TGI (EKVX NSCLC) was 5300 nM and the GI50 (HOP-62 NSCLC) was 511 nM. For the same molecule, the TGI (HOP-62 NSCLC) was 4650 nM, the GI50 (HCT-15 colon) was 1740 nM and the TGI (HCT-15 colon) was over 100000 nM. For the same molecule, the GI50 (SK-MEL-28 melanoma) was 809 nM, the TGI (SK-MEL-28 melanoma) was 2300 nM and the GI50 (NCI/ADR-RES ovarian) was 3080 nM. It also gave a TGI (NCI/ADR-RES ovarian) of over 100000 nM, a GI50 (SR leukemia) of 342 nM and a TGI (SR leukemia) of over 100000 nM. For the same molecule, the GI50 (COLO 205 colon) was 523 nM, the TGI (COLO 205 colon) was 1950 nM and the GI50 (TK-10 renal) was 1100 nM. The TGI (TK-10 renal) was 5260 nM, the GI50 (HS 578T breast) was 1670 nM and the TGI (HS 578T breast) was 5970 nM. For the same molecule, the GI50 (BT-549 breast) was 898 nM, the TGI (BT-549 breast) was 6920 nM and the GI50 (HCC-2998 colon) was 703 nM. For the same molecule, the TGI (HCC-2998 colon) was 3480 nM, the GI50 (SK-OV-3 ovarian) was 773 nM and the TGI (SK-OV-3 ovarian) was 3920 nM. The GI50 (SN12C renal) was 1290 nM, the TGI (SN12C renal) was 6130 nM and the GI50 (MDA-MB-231 breast) was 620 nM. It also gave a TGI (MDA-MB-231 breast) of 7060 nM, a GI50 (HT29 colon) of 1790 nM and a TGI (HT29 colon) of 5930 nM. It also gave a GI50 (RPMI-8226 leukemia) of 2400 nM, a TGI (RPMI-8226 leukemia) of 6010 nM and a GI50 (HL-60(TB) leukemia) of 709 nM. The TGI (HL-60(TB) leukemia) was over 28900 nM, the GI50 (SK-MEL-5 melanoma) was 1020 nM and the TGI (SK-MEL-5 melanoma) was 2340 nM. The GI50 (K-562 leukemia) was 433 nM, the TGI (K-562 leukemia) was over 100000 nM and the GI50 (U251 CNS) was 514 nM. It also gave a TGI (U251 CNS) of over 100000 nM, a GI50 (NCI-H226 lung) of 1070 nM and a TGI (NCI-H226 lung) of 5970 nM. The GI50 (SK-MEL-2 melanoma) was 1280 nM, the TGI (SK-MEL-2 melanoma) was 2670 nM and the GI50 (HCT-116 colon) was 395 nM. The TGI (HCT-116 colon) was over 100000 nM, the GI50 (CCRF-CEM leukemia) was 395 nM and the TGI (CCRF-CEM leukemia) was over 100000 nM. For the same molecule, the GI50 (NCI-H23 lung) was 1510 nM, the TGI (NCI-H23 lung) was 4430 nM and the GI50 (SF-539 CNS) was 683 nM. The TGI (SF-539 CNS) was 2530 nM, the GI50 (IGROV1 ovarian) was 1020 nM and the TGI (IGROV1 ovarian) was 5110 nM. It also gave a GI50 (SF-295 CNS) of 1720 nM, a TGI (SF-295 CNS) of 7100 nM and a GI50 (OVCAR-4 ovarian) of 460 nM. It also gave a TGI (OVCAR-4 ovarian) of 2590 nM, a GI50 (UO-31 renal) of 1680 nM and a TGI (UO-31 renal) of 4910 nM. The GI50 (SNB-75 CNS) was 1210 nM, the TGI (SNB-75 CNS) was 2630 nM and the GI50 (MDA-MB-435) was 917 nM. The TGI (MDA-MB-435) was 2390 nM, the GI50 (NCI-H460 lung) was 2430 nM and the TGI (NCI-H460 lung) was 6630 nM. The GI50 (SF-268 CNS) was 492 nM, the TGI (SF-268 CNS) was 4230 nM and the GI50 (T-47D breast) was 346 nM. The TGI (T-47D breast) was 2730 nM, the GI50 (SNB-19 CNS) was 947 nM and the TGI (SNB-19 CNS) was over 27400 nM.

Reference: PubChem BioAssay (NCI)
